Data taken from US20180110777A1, “METHOD FOR REGULATION OF TELOMERE LENGTH” (The Johns Hopkins University, priority 2015, published 2018).
Values joined by “and” are separate entries in the source; they are usually repeats but may differ in a detail not shown here. Identical values can stand only once. “Also recorded” adds a separate entry of the source.

Legend:
[1] = tested on: SL13 cells; assay: ADDIT assay (addition of de novo initiated telomeres; modified STELA with PacBio sequencing or Southern blot); assay type: cell-based, mouse; details: for de novo telomere addition / telomere elongation in ADDIT assay (in words): PacBio sequencing of STELA products, compared to controls; for percentage of CCS reads with de novo telomere addition (mean and SEM): SL13 cells pretreated prior to doxycycline, 10 μM KU55933, 3 μM Olaparib, 100 nM siATM, multiple experiments
Excerpt: To critically access the role of ATM, as well as other potential telomere length regulators, an assay was developed that measures telomere repeat addition in cells over 48 hr. CAST/EiJ mouse fibroblast cell line was engineered to (SL13) contain a conditional mTR allele and a modified chromosome 4 (chr4) with an internal 480 bp telomere ‘seed’ sequence followed by a unique I-Sce1 endonuclease cut site (FIG. 5 and see Experimental Procedures). The internal telomere ‘seed’ sequence can be conditionally exposed by I-Sce1 endonuclease cleavage (FIG. 1A) and then be elongated by telomerase in a manner similar to de novo telomere addition shown to occur in yeast (Diede and Gottschling, 1999, Cell 99, 723-733).
To better detect the telomere elongation, the single telomere length analysis (STELA) assay was modified (Baird et al., 2004, Hum Mol Genet 13, 1515-1524), to measure telomere length at the in vivo cut chr4. The linker, ‘telorette’, was ligated to the telomere and PCR amplified the telomere using the ‘teltail’ primer and an internal primer in the hygromycin resistance (HYG) sequence on the engineered chromosome (FIG. 1B). To determine the un-extended cut chromosome length in vitro, a different linker was designed, ‘IScerette’, which anneals to the 4-nt 3′ overhang created by the I-Sce1 endonuclease (FIG. 1B). PCR using the forward primers, F1 or F2, and the teltail generated products of predicted size on a Southern blot (data not shown).
To further verify telomere addition had occurred, the PCR products were sequenced with Pacific Biosciences (PacBio®) sequencing. PacBio® produces long sequence reads that allowed us to determine telomere length. While sequencing errors, predominantly point insertions and deletions, occurred as expected, the telomere repeats were easily recognizable. To assure products were full length, the PacBio® reads were filtered to examine only those that had the unique HYG sequence followed by the seed telomere repeat sequence and also had the ‘teltail’ primer sequence (FIG. 6). […] The I-Sce1 site is shown boxed (FIG. 1C). Three regions of variant telomere repeats were noted, evident as darker stripes in the aligned reads, that were present in the original SL13 clone, and served as useful sequence reference points (FIG. 1C). If there were degradation past these variants and then new TTAGGG (SEQ ID NO: 100) repeat synthesis in vivo, these landmarks would be removed.
The sequence length distribution in the ADDIT assay represents telomere elongation, incomplete telomere replication and in vivo end resection (as well as PacBio® sequencing errors).
Cell lines were grown in DMEM (Gibco) supplemented with 1% Penicillin/Streptomycin/Glutamine (PSG) and 10% heat inactivated FBS (Invitrogen). SL13 cells were grown in DMEM (Gibco) supplemented with 1% PSG and 10% Tet system approved FBS (Clontech, #631107). Cells were treated with ATM inhibitor KU55933 (R&D Systems, #3544), ATR inhibitor VE821 (Selleckchem, #S8007) or PARP1 inhibitor Olaparib (Selleckchem, #1060) at indicated concentrations or DMSO as a control. For the ADDIT assay, SL13 cells were treated with final concentration 2 μg/ml of doxycycline for typically 48 hr or as indicated.
The original STELA protocol used for human cells (Baird et al., 2004, Hum Mol Genet 13, 1515-1524) was modified to measure telomere lengths on the cut end of chr4 in SL13 cells. Briefly, genomic DNA was extracted using Puregene Core Kit A™ (Qiagen). 4 μg of genomic DNA was digested with Sph1 (NEB) and later diluted to 10 ng/μl in water. For the in vitro IScerette sample, genomic DNA was digested with SphI and I-SceI (NEB) prior to ligation. The ligation was carried out at 35° C. for at least 12 hr in a volume of 10 μl containing 10 ng of digested genomic DNA, 0.9 μM of telorette linkers or IScerette linker and 0.5 U of T4 DNA ligase (NEB) in 1×T4 ligation buffer. […]

[2] = tested on: ATM; assay: Western blot of ATM signaling (phospho-Kap1, phospho-ATM); assay type: cell-based, mouse
Excerpt: To probe the role of ATM, the ADDIT assay was used in cells treated with the ATM specific inhibitor KU55933 (as described in Hickson et al., 2004, Cancer Research 64, 9152-9159) or with siRNA to ATM. To confirm the inhibition of ATM, the phosphorylation level was examined of the ATM substrate Kap1 and, as a control, an ATR kinase substrate Chk1 by western blot. Cultured cells were pretreated with KU55933, siA™ or DMSO control and then exposed to camptothecin (CPT), a DNA damaging agent.
To further probe the role of ATM in telomere length, ATM was activated in cultured cells. […] PARP is an essential enzyme involved in recognition and repair of DNA breaks. […] Similar to wild-type control, the most common class of telomere addition was Class 3 that creates the most complementarity between the 3′ end and the mTR sequence (Table 3). To examine whether this stimulation of telomere elongation acts through ATM, epistasis was examined by treating cells with both Olaparib and KU55933.
To detect phospho-proteins, 1× lysis buffer made of final concentration of 1×RIPA™ (Cell Signaling, #98016S), 1× protease inhibitor cocktail, 1× PhosSTOP™ (Roche, 4906845001) was added directly to cells on the dish after washing with PBS. Protein concentration was measured with a BCA protein assay kit (Thermo, #23227). Typically 10 μg of protein from each sample was applied to SDS-PAGE gels (Biorad, #456-1084) and transferred to nitrocellulose membranes in transfer buffer. After blocking with the Odyssey™ blocking buffer (LI-COR, #927-40000), membranes were incubated at 4° C. overnight or 1 hr at RT with the following primary antibodies: anti-phospho-Kap1 (Bethyl Lab, #A300-767A); anti-phospho-CHK1 (Cell Signaling, #2348S); anti-phospho-ATM (Millipore, #05-740); anti-HA (Santa Cruz, #sc-7392); anti-Actin (Santa Cruz, #sc-1616); anti-PAR (Trevigen, #4335-MC-100). […] Band intensities were quantified using the Odyssey™ software (LI-COR) and normalized to Actin levels. […]

Structure (SMILES)	de novo telomere addition / telomere elongation in ADDIT assay (in words) [1]	percentage of CCS reads with de novo telomere addition (mean and SEM) [1]	Kap1-S824 phosphorylation ([2]; cells pretreated, then exposed to camptothecin (CPT))	phosphorylation of ATM-S1981 ([2]; Olaparib-treated cells)	Kap1 phosphorylation in response to PARP1 inhibition ([2]; compared to DMSO-treated control cells)
O=c1cc(-c2cccc3c2Sc2ccccc2S3)oc(N2CCOCC2)c1 [KU55933]	significantly fewer telomere elongation products	12.45±1.16%	blocked Kap1 phosphorylation		
O=C(c1cc(Cc2n[nH]c(=O)c3ccccc23)ccc1F)N1CCN(C(=O)C2CC2)CC1 [Olaparib]	small increase in telomere elongation	26% and 26.1±1.19%		increased phosphorylation of ATM-S1981	increased ATM phosphorylation of Kap1; also recorded: increased level of Kap1 phosphorylation
